According to patent US20230391841A1, “MACROCYCLIC PEPTIDES” (Herantis Pharma OYJ, priority 2019, published 2023):
Bridge positions count the residues as written; N and C are the ends. Peptide text beside a SMILES is read from it.

What was measured:
rat hepatocytes = assay: In vitro metabolic stability in rat hepatocytes; type: in vitro ADME; details: 1 μM, 37° C., up to 60 min
Procedure: The linear or macrocyclic compounds 1-14 and 23-26 (SEQ ID NOs: […]) were incubated in concentration 1 μM with pooled cryopreserved rat hepatocytes (Sprague-Dawley, male; 400 pl, 1.0 million viable cells/ml for compounds 1-8, 11-12 and 23-26 or 100 μl, 0.1 million viable cells/ml for compounds 9-10 and 13-14) for different time points (0, 10, 20, 40 or 60 min) at 37° C. The cell density and viability were determined by trypan blue exclusion method. The incubation was terminated by acetonitrile. The collected samples were centrifuged for 20 min at 2272×g and analyzed. The samples were analyzed is by UHPLC/PDA with high resolution mass spectrometry (QE-Orbitrap-MS on DDI mode) (compounds 1-8, 11-12 and 23-26) or HHPLC-ToF mass spectrometry (for compounds 9-and 13-14) to monitor disappearance of the compound. Verapramil 1 μM was used as a disappearance rate control. The analytical method was optimized by using the parent compounds for optimum chromatographic properties (peak shape and retention) and mass spectrometric ionization. The Ion chromatograms were extracted from the total ion chromatograms using calculated monoisotopic accurate masses with 5 mDa window. Disappearance was based on LC/MS peak areas, marking 0 min as 100%. The first-order rate constants k (min-1) of the metabolism were obtained from the slope of time versus logarithm (% of remaining compound) plot using Excel software. The in vitro half-life (t1/2) of study compound is defined as: t1/2In2/k. Calculated half-life is based on compound disappearance in rat liver hepatocytes.

[1] = system: 3D in vitro model of blood-brain barrier; assay: Permeation in a 3D in vitro model of blood-brain barrier; type: in vitro ADME, human endothelial cells, rat astrocytes and cortical neurons; details: 500 nM, 2 h
Procedure: Due to the interest of developing CDNF- and MANF-derived peptides for treatment of CNS diseases with peripheral route of administration, and the fact that macrocyclization can improve cell-penetration and distribution properties of peptides, the ability of the compounds to pass the blood-brain barrier was tested in an established in vitro model of the blood-brain barrier. For this purpose, macrocyclic and linear compounds were incubated at 500 nM for 2 h in a two-compartment in vitro blood-brain barrier model (n=4) followed by sample collection is and LC-MS/MS analysis.
Primary culture of astrocytes. Rat astrocytes were prepared from a E15 embryos. Briefly, pregnant female rats (Wistar, Janvier Labs) of 15 days of gestation were deeply anesthetized in a (CO2 chamber) and then killed by cervical dislocation. Fetuses were collected and immediately placed in ice-cold L15 Leibovitz medium with a 2% penicillin (10,000 U/mL) and streptomycin (10 mg/mL) solution (PS) and 1% bovine serum albumin (BSA). Full brains were treated for 20 min at 37° C. with a trypsin- EDTA solution at a final concentration of 0.05% trypsin and 0.02% EDTA. Dissociated cells were cultured in DMEM 10% fetal calf serum. Purified astrocytes were used at passage 4 (P4).
Culture of human endothelial cells. A vial of HBMEC (Primary Human Brain Microvascular Endothelial Cells, ACBRI 376) was used at a specific passage 8 (P8).
Primary culture of cortical neurons. Rat cortical neurons were cultured as described by Callizot et al., 2013 with modification. Briefly, pregnant female rats (Wistar, Janvier Labs) of […] were deeply anesthetized in a CO2 chamber and then killed by cervical io dislocation. Fetuses were collected and immediately placed in ice-cold L15 Leibovitz medium with a 2% penicillin (10,000 U/mL) and streptomycin (10 mg/mL) solution (PS) and 1% bovine serum albumin (BSA). Cortices were treated for 20 min at 37° C. with a trypsin-EDTA solution at a final concentration of 0.05% trypsin and 0.02% EDTA. The dissociation was stopped by addition of Dulbecco's modified Eagle's medium (DMEM) with 4.5 g/L of glucose, containing is DNAse I grade II (final concentration 0.5 mg/m L) and 10% fetal calf serum (FCS). Cells were mechanically dissociated by three forced passages through the tip of a 10-m1 pipette. Cells were then centrifuged at 515×g for 10 min at 4° C. The pellet resuspended in a defined culture medium consisting of Neurobasal medium with a 2% solution of B27 supplement, 2 mmol/L of L-glutamine, 2% of PS solution, 10 ng/mL of brain-derived neurotrophic factor (BDNF). Viable cells were counted in a Neubauer cytometer, using the trypan blue exclusion test. The cortical neurons were seeded in the bottom of well pre-coated with poly-L-lysine at a density of 255,000 per well in 24-well plate with insert and cultured at 37° C. in an air (95%)-CO2 (5%) incubator. The culture medium was changed every other day.
Co-Culture of endothelial cells, astrocytes and primary cortical neurons. The procedure was performed as previously published (Xue et al., 2013 with modifications, Callizot et al., 2017). Briefly, on day 0, purified astrocytes (P4) were rapidly thawed in a water bath at 37° C. The cells were immediately put in DMEM containing 10% of FCS. Cell suspension was centrifuged at 515×g for 5 min at 4° C. and the pellets were suspended in DMEM F12 containing 10% of FCS. Cells were seeded in the outer side of the insert membrane (PET, 1 μm) at the density of 45,000 cells per insert and cultured at 37° C. in an air (95%)-CO2 (5%) incubator. Thirty-six (36) hours after the astrocytes seeding, HBMEC (P8) were rapidly thawed in a water bath at 37° C. and immediately put in DMEM containing 10% of FCS. Cell suspension was centrifuged at 515×g for 5 min at 4° C. and the pellets were suspended in EGM-2 bullet kit containing 5% of FCS, 1% of PS solution, 1.4 μM of Hydrocortisone, 5 μg/mL of acid ascorbic, 1% of lipid mixture, 10 mM of HEPES, 1 ng/mL of bFGF. […]

SMILES | stability in rat hepatocytes as compared to linear counterpart (rat hepatocytes) | ability to pass through the in vitro blood-brain barrier as compared to linear counterpart [1]
CC[C@H](C)[C@@H]1NC(=O)[C@H](CCCCN)NC(=O)[C@H](CCCCN)NC(=O)[C@H](CC(C)C)NC(=O)[C@H](CCC(=O)O)NC(=O)[C@H](CCCCN)NC(=O)[C@H](C(C)C)NC(=O)[C@H](CCCNC(=N)N)NC(=O)[C@H](CC(C)C)NC(=O)[C@H](CCCCN)NC(=O)[C@H](CCC(=O)O)NC(=O)[C@H](C)NC(=O)[C@@H]2CSSC[C@H](NC(=O)[C@H]([C@@H](C)O)NC(=O)[C@H](CCC(=O)O)NC(=O)CNC(=O)[C@H](Cc3c[nH]c4ccccc34)NC(=O)[C@H](CC(=O)O)NC(=O)[C@H](CC(=O)O)NC(=O)[C@H](CC(C)C)NC1=O)C(=O)N[C@@H](CCCCN)C(=O)NCC(=O)N2 [Compound 8] (cyclo(AEKLRVKELKKILDDWGETCKGC); disulfide 20-23) | significantly improved stability | improved ability to pass
C[C@@H]1NC(=O)[C@@H]2CSSC[C@H](NC(=O)[C@H](CCC(=O)O)NC(=O)[C@H](CCC(=O)O)NC(=O)CNC(=O)[C@H](Cc3c[nH]c4ccccc34)NC(=O)[C@H]([C@@H](C)O)NC(=O)[C@H](CCCCN)NC(=O)[C@H](CCC(=O)O)NC1=O)C(=O)N[C@@H](CCCNC(=N)N)C(=O)N[C@@H](C)C(=O)N2 [Compound 12, WGEECRACAEKT] (cyclo(ACAEKTWGEECR); disulfide 2-11) | significantly improved stability | improved ability to pass
CC[C@H](C)[C@@H]1NC(=O)[C@H](CCC(N)=O)NC(=O)[C@H](CCCCN)NC(=O)[C@H](CC(C)C)NC(=O)[C@H](CCC(=O)O)NC(=O)[C@H](C)NC(=O)[C@H](C(C)C)NC(=O)[C@H](CCCNC(=N)N)NC(=O)[C@H](CCSC)NC(=O)[C@H](CCCCN)NC(=O)[C@H](CCC(=O)O)NC(=O)[C@H](C)NC(=O)[C@@H]2CSSC[C@H](NC(=O)[C@H](CCC(=O)O)NC(=O)[C@H](CCC(=O)O)NC(=O)CNC(=O)[C@H](Cc3c[nH]c4ccccc34)NC(=O)[C@H](CO)NC(=O)[C@H](Cc3c[nH]cn3)NC(=O)[C@H](CC(C)C)NC1=O)C(=O)N[C@@H](CCCNC(=N)N)C(=O)N[C@@H](C)C(=O)N2 [Compound 6] (cyclo(ACAEKMRVAELKQILHSWGEECR); disulfide 2-22) | significantly improved stability | improved ability to pass
CC[C@H](C)[C@@H]1NC(=O)[C@H](CO)NC(=O)[C@H](CCCCN)NC(=O)[C@H](CCC(=O)O)NC(=O)[C@H](C)NC(=O)[C@@H]2CSSC[C@H](NC(=O)[C@H]([C@@H](C)O)NC(=O)[C@H](CCC(=O)O)NC(=O)CNC(=O)[C@H](Cc3c[nH]c4ccccc34)NC(=O)[C@H](CC(=O)O)NC(=O)[C@H](CC(=O)O)NC(=O)[C@H](CC(C)C)NC1=O)C(=O)N[C@@H](CCCCN)C(=O)NCC(=O)N2 [Compound 10, KSILDDWGETCKGCAE] (cyclo(AEKSILDDWGETCKGC); disulfide 13-16) | significantly improved stability | 
CC[C@H](C)[C@@H]1NC(=O)[C@H](CCC(N)=O)NC(=O)[C@H](CCCCN)NC(=O)[C@H](CC(C)C)NC(=O)[C@H](CCC(=O)O)NC(=O)[C@H](C)NC(=O)[C@H](C(C)C)NC(=O)[C@H](CCCNC(=N)N)NC(=O)[C@H](CCSC)NC(=O)[C@H](CCCCN)NC(=O)[C@H](CCCNC(=N)N)NC(=O)[C@H](CC(C)C)NC(=O)[C@H](CC(=O)O)NC(=O)[C@H](C(C)C)NC(=O)[C@H](CCC(=O)O)NC(=O)[C@H](C)NC(=O)[C@@H]2CSSC[C@H](NC(=O)[C@H](CCC(=O)O)NC(=O)[C@H](CCC(=O)O)NC(=O)CNC(=O)[C@H](Cc3c[nH]c4ccccc34)NC(=O)[C@H](CO)NC(=O)[C@H](Cc3c[nH]cn3)NC(=O)[C@H](CC(C)C)NC1=O)C(=O)N[C@@H](CCCNC(=N)N)C(=O)N[C@@H](C)C(=O)N2 [Compound 2] (cyclo(ACAEVDLRKMRVAELKQILHSWGEECR); disulfide 2-26) | significantly improved stability | improved ability to pass
C[C@@H]1NC(=O)[C@@H]2CSSC[C@H](NC(=O)[C@H]([C@@H](C)O)NC(=O)[C@H](CCC(=O)O)NC(=O)CNC(=O)[C@H](Cc3c[nH]c4ccccc34)NC(=O)[C@H](CO)NC(=O)[C@H](CCCCN)NC(=O)[C@H](CCC(=O)O)NC1=O)C(=O)N[C@@H](CCCCN)C(=O)NCC(=O)NCC(=O)N2 [Compound 26, WGETCKGGCAEKS] (cyclo(AEKSWGETCKGGC); disulfide 9-13) | significantly improved stability | improved ability to pass
C[C@@H]1NC(=O)[C@@H]2CSSC[C@H](NC(=O)[C@H]([C@@H](C)O)NC(=O)[C@H](CCC(=O)O)NC(=O)CNC(=O)[C@H](Cc3c[nH]c4ccccc34)NC(=O)[C@H](CO)NC(=O)[C@H](CCCCN)NC(=O)[C@H](CCC(=O)O)NC1=O)C(=O)N[C@@H](CCCCN)C(=O)NCC(=O)N2 [Compound 14, WGETCKGCAEKS] (cyclo(AEKSWGETCKGC); disulfide 9-12) | significantly improved stability | improved ability to pass
C[C@@H]1NC(=O)CNC(=O)[C@H](CCCNC(=N)N)NC(=O)[C@@H]2CSSC[C@H](NC1=O)C(=O)N[C@@H](C)C(=O)N[C@@H](CCC(=O)O)C(=O)N[C@@H](CCCCN)C(=O)N[C@@H]([C@@H](C)O)C(=O)N[C@@H](Cc1c[nH]c3ccccc13)C(=O)NCC(=O)N[C@@H](CCC(=O)O)C(=O)N[C@@H](CCC(=O)O)C(=O)N2 [Compound 24, WGEECRGACAEKT] (cyclo(ACAEKTWGEECRG); disulfide 2-11) | significantly improved stability | improved ability to pass
